# Measurements published in US8163791B2, “Imidazole derivatives that induce apoptosis and their therapeutic uses” (Industry-Academic Cooperation Foundation, Yonsei University, priority 2007, dated 2012).
# Columns and labels:
# Jurkat human lymphocytes [1] = assay: Suppression of TNF-α-induced uropod formation in lymphocytes; format: cell-based; conditions: FIG. 3 legend; TNF-α 10 ng/mL
# Description: (§1) FIG. 3. Suppression of TNF-α and PHA-induced human lymphocyte activation by Apoptozole 1. (A) Jurkat human lymphocytes are treated with various concentrations of Apoptozole 1 for 1 h and then are activated by incubation with 10 ng/mL of TNF-α for 1 h to induce uropod formation. The formed uropod is determined by microscopic analysis of groups of cells. (B) Lymphocytes treated with TNF-α (10 ng/mL) for 48 h are incubated with various concentrations of Apoptozole 1 for 24 h. Cell number is measured by CyQuant kit. (C) Jurkat human lymphocytes are incubated with various concentrations of Apoptozole 1 for 1 h and then with 10 μg/mL PHA for 1 h to induce cell aggregation. Cell aggregates are counted in 40× fields of view determined randomly.
# (§2) Lymphocyte activation leads to the formation of a uropod in the rear pole during cell polarization and cell proliferation. Jurkat lymphocytes are incubated with various concentrations of Apoptozoles for 1 h and the treated cells are then activated by treatment with TNF-α for 1 h. Apoptozoles reduce the uropod formation induced by TNF-α by 45% in comparison with cells treated only with TNF-α. […]
# Jurkat human lymphocytes are seeded in 6-well plates at a density of 10^3 cells/mL in 5% FBS in order to reduce the propensity for spontaneous uropod formation. […] The formed uropod is determined by microscopic analysis of groups of cells.
# Jurkat human lymphocytes [2] = assay: Suppression of PHA-induced homotypic aggregation in lymphocytes; format: cell-based; conditions: FIG. 3 legend; PHA 10 μg/mL
# Description: as §1, §2
# For homotypic aggregation studies, lymphocytes are seeded in 6-well plates at a density of 2×10^4 cells/mL and treated with various concentrations (0-100 nM) of Az for 1 h. […] Cell aggregates are counted in 40× fields of view determined randomly.
# [3] = test system: ΔF508-CFTR in CFPAC-1 cells; assay: Detection of ΔF508-CFTR expression on the cell membrane (immunostaining without permeabilization); format: cell-based, human; conditions: 100 nM, 24 h
# Description: FIG. 4. Intracellular trafficking of misfolded ΔF508-CFTR by Apoptozole 1. (A) Capan-1 cells expressing normal CFTR display intense fluorescence in a characteristic ring structure that is indicative of cell membrane labeling. (B) CFPAC-1 cells expressing ΔF508-CFTR show little or no fluorescent signal at the cell surface, due to degradation ΔF508-CFTR by interacting with Hsc70 in the proteosome pathway. […] Immunostaining for CFTR is carried out using standard methods without cell permeabilization to allow CFTR detection on the cell surface.
# The other embodiment of the present invention provides translocation methods of mutant CFTR (cystic fibrosis transmembrane conductance regulator) to treat cystic fibrosis. Hsc70 assists the degradation of misfolded proteins in the ER (Nature 1996, 381, 571-579 Cell 1998, 92, 351-366 Science 1999, 286, 1888-1893). Cystic fibrosis is a disease caused by removal of mutant CFTR in the ER. The most common mutation of CFTR is the deletion of phenylalanine-508 in CFRT (ΔF508-CFRT). […] When Capan-1 cells are immunostained with anti-CFTR antibody, intense fluorescence is observed in the cell membrane. […]
# Capan-1 and CFPAC-1 cells are grown on Permanox slides (Fisher Scientific) for 24 h and treated with 1 mM 4-PBA and 100 nM Az for 24 h. […] The slides were analyzed using a fluorescence microscope (Nikon Eclipse TE2000).
smiles,measurement,setting,value
"COc1ccc(-c2nc(-c3cc(C(F)(F)F)cc(C(F)(F)F)c3)n(Cc3ccc(C(N)=O)cc3)c2-c2ccc(OC)cc2)cc1 [Apoptozole 1, 4-2-[3,5-bis(trifluoromethyl)phenyl]-4,5-bis(4-methoxphenyl)imidazol-1-yl-methyl-benzamide]",TNF-α-induced human lymphocyte activation,Jurkat human lymphocytes [1],Suppression
same,PHA-induced human lymphocyte activation,Jurkat human lymphocytes [2],Suppression
same,expression of ΔF508-CFTR on the cell membrane,[3],inhibits Hsc70-mediated degradation of the ΔF508-CFTR
